Reference: ChEMBL document CHEMBL1201862, “PubChem BioAssay data set” (2004)
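96-well plates; 48 h exposure; 5 concentrations. Endpoints by linear interpolation between flanking doses. Not reached: highest tested concentration assigned. GI50 is the concentration that inhibits growth by half.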 Calls of active or inactive are those of the source. Rule as the data show it: active = GI50 up to about 1.1 µM and inactive = higher.

How the values were obtained:
Test in all cases: inhibition of tumour cell growth, NCI panel, 48 h
SR = tested on: SR
HCC 2998 = tested on: HCC 2998
SK-MEL-28 = tested on: SK-MEL-28
HOP-62 = tested on: HOP-62
U-251 = tested on: U-251
KM12 = tested on: KM12
OVCAR-8 = tested on: OVCAR-8
SNB-19 = tested on: SNB-19
COLO 205 = tested on: COLO 205
K562 = tested on: K562
NCI-H522 = tested on: NCI-H522
CCRF-CEM = tested on: CCRF-CEM
SNB-75 = tested on: SNB-75
A498 = tested on: A498
UACC-62 = tested on: UACC-62
Malme-3M = tested on: Malme-3M
HCT-116 = tested on: HCT-116
EKVX = tested on: EKVX
NCI-H23 = tested on: NCI-H23
SW-620 = tested on: SW-620

Measured: GI50

O=[N+]([O-])c1ccc(S(=O)(=O)N=Ic2ccccc2)cc1
inactive: SR > 100 µM | HCC 2998 > 100 µM | SK-MEL-28 > 100 µM | HOP-62 > 100 µM | U-251 > 100 µM | KM12 > 100 µM | OVCAR-8 > 100 µM | SNB-19 > 100 µM | COLO 205 > 100 µM | K562 > 100 µM | NCI-H522 > 100 µM | CCRF-CEM > 100 µM | SNB-75 > 100 µM | A498 > 100 µM | UACC-62 > 100 µM | Malme-3M > 100 µM | HCT-116 > 100 µM | EKVX 97.7 µM | NCI-H23 > 100 µM | SW-620 > 100 µM

COC(=O)C1=C(O)C(C(=O)OC)[C@@]2(O)[C@@H](C(=O)OC)[C@H](C)C[C@@H]1[C@@H]2C(=O)OC (stereo not given in full)
inactive: SR 21.3 µM | HCC 2998 16.6 µM | SK-MEL-28 46.2 µM | HOP-62 31.8 µM | U-251 20.5 µM | KM12 23.5 µM | SNB-19 34.2 µM | K562 23.2 µM | NCI-H522 25.2 µM | CCRF-CEM 28.1 µM | SNB-75 22.9 µM | A498 15.5 µM | UACC-62 23.7 µM | Malme-3M 42.9 µM | HCT-116 35.5 µM | EKVX 22.4 µM | NCI-H23 37.5 µM

O=C1C(=O)N(C2CCCCC2)C(=S)N1C1CCCCC1
inactive: SR > 100 µM | HCC 2998 > 100 µM | SK-MEL-28 > 100 µM | HOP-62 > 100 µM | U-251 > 100 µM | KM12 > 100 µM | OVCAR-8 > 100 µM | SNB-19 > 100 µM | COLO 205 > 100 µM | K562 > 100 µM | NCI-H522 7.76 µM | CCRF-CEM > 100 µM | SNB-75 > 100 µM | A498 > 100 µM | UACC-62 > 100 µM | Malme-3M > 100 µM | HCT-116 > 100 µM | EKVX > 100 µM | NCI-H23 > 100 µM | SW-620 > 100 µM

CCOC(=O)C(=O)Nc1c(CC)cccc1C(C)CC (stereo not given)
inactive: SR > 100 µM | HCC 2998 > 100 µM | SK-MEL-28 > 100 µM | HOP-62 > 100 µM | U-251 > 100 µM | KM12 > 100 µM | OVCAR-8 > 100 µM | SNB-19 > 100 µM | COLO 205 > 100 µM | K562 > 100 µM | NCI-H522 > 100 µM | CCRF-CEM > 100 µM | SNB-75 > 100 µM | A498 > 100 µM | UACC-62 > 100 µM | Malme-3M > 100 µM | HCT-116 > 100 µM | EKVX > 100 µM | NCI-H23 > 100 µM | SW-620 > 100 µM

O=C(O)/C=N\N=c1[nH]c2ccccc2[nH]1
inactive: SR > 100 µM | HCC 2998 > 100 µM | SK-MEL-28 > 100 µM | HOP-62 > 100 µM | U-251 > 100 µM | KM12 > 100 µM | OVCAR-8 > 100 µM | SNB-19 > 100 µM | COLO 205 > 100 µM | K562 > 100 µM | NCI-H522 > 100 µM | CCRF-CEM > 100 µM | SNB-75 > 100 µM | A498 > 100 µM | UACC-62 > 100 µM | Malme-3M > 100 µM | HCT-116 > 100 µM | EKVX > 100 µM | NCI-H23 > 100 µM | SW-620 > 100 µM

COC1CCC2C(=O)CCCC2O1 (stereo not given)
inactive: SR > 100 µM | HCC 2998 > 100 µM | HOP-62 > 100 µM | U-251 > 100 µM | KM12 > 100 µM | OVCAR-8 > 100 µM | SNB-19 > 100 µM | COLO 205 > 100 µM | K562 > 100 µM | NCI-H522 > 100 µM | SNB-75 > 100 µM | A498 > 100 µM | UACC-62 > 100 µM | Malme-3M > 100 µM | HCT-116 > 100 µM | EKVX > 100 µM | NCI-H23 > 100 µM | SW-620 > 100 µM

Cc1cc2c3c(c1)CCCN3CCC2
inactive: SR > 10 µM | HCC 2998 > 10 µM | SK-MEL-28 > 10 µM | HOP-62 > 10 µM | U-251 > 10 µM | KM12 > 10 µM | OVCAR-8 > 10 µM | SNB-19 > 10 µM | COLO 205 > 10 µM | K562 > 10 µM | NCI-H522 > 10 µM | CCRF-CEM > 10 µM | SNB-75 > 10 µM | A498 > 10 µM | UACC-62 > 10 µM | Malme-3M > 10 µM | HCT-116 > 10 µM | EKVX > 10 µM | NCI-H23 > 10 µM | SW-620 > 10 µM
